Measured values published in patent US8389557B2, “Triazole derivatives useful as Axl inhibitors” (Rigel Pharmaceuticals, Inc., priority 2005, dated 2013).

Molecular target: T1, Axl (Homo sapiens, UniProt P30530)
T1 construct: endogenous in cells; host or cells: HeLa cells
T1 sequence (P30530 26-894): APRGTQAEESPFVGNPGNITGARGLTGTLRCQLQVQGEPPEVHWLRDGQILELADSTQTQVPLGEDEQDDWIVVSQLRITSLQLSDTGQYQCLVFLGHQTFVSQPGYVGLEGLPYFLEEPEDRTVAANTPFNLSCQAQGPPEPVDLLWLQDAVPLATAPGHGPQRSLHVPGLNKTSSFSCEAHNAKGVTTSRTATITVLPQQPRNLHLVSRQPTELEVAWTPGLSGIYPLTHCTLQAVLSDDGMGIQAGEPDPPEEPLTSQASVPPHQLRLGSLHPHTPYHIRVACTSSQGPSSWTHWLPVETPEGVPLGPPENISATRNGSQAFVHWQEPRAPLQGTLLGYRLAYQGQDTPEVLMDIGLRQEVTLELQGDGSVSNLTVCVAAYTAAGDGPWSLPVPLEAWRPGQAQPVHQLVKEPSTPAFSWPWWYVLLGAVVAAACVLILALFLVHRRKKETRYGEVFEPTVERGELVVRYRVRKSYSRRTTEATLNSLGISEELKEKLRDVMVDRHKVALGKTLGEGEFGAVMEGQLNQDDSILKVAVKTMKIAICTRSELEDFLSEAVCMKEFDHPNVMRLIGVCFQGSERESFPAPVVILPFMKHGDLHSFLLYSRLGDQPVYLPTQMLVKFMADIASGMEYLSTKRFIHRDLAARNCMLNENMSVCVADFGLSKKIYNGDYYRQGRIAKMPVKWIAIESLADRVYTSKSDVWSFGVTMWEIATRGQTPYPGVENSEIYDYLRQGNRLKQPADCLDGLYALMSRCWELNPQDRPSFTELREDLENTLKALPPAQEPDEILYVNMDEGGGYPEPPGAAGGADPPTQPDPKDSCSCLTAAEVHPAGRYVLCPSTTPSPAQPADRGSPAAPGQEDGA
Assay: Phospho-Akt in-cell Western assay (inhibition of Axl activity)
Assay type: cell-based
Experimental: The compounds of the invention were tested in the following assay for their ability to inhibit Axl activity.
Phospho-Akt in-Cell Western Assay
• Cell culture plate: 96 well assay plate (Corning 3610), white, clear bottom, tissue-culture treated. • Cells: Hela cells. • Starvation medium: For Axl stimulation: 0.5% FCS (fetal calf serum) in DMEM, plus Axl/Fc (extracellular domain of AXL fused to immunoglobulin Fc region) (R&D, 154-AL) 500 ng/mL. • For EGF (epidermal growth factor) stimulation: 0.5% FCS in DMEM (Dulbecco's modified Eagles medium). • Poly-L-Lysine 0.01% solution (the working solution): 10 μg/ml, dilute In PBS (phosphate buffered saline). • Axl antibody cross-linking: • 1st: Mouse anti-Axl (R&D, MAB154). • 2nd: Biotin-SP-conjugated AffiniPure goat anti-mouse IgG (H+L) (Jackson ImmunoResearch #115-065-003). • Fixing buffer: 4% formaldehyde in PBS. • Wash buffer: 0.1% TritonX-100 in PBS. • Quenching buffer: 3% H2O2, 0.1% Azide in wash buffer, Azide and hydrogen peroxide (H2O2) are added fresh. • Blocking buffer: 5% BSA in TBST (tris buffered saline plus 0.1% Tween 20). • Primary antibody: Rabbit anti-human Phospho-Akt antibody (Cell Signaling 9271): 1×250 diluted in blocking buffer. • Secondary antibody: HRP (horse radish peroxidase)-conjugated Goat anti-Rabbit secondary, stock solution: Jackson ImmunoResearch (Goat anti-Rabbit HRP, #111-035-144) 1:1 diluted in glycerol, store at −20° C. The working solution: 1×2000 dilution of stock in blocking buffer. • Chemiluminescent working solution (Pierce, 37030): SuperSignal ELISA (enzyme linked immunosorbant assay) Pico Chemiluminescent substrate. • Crystal Violet solution: Stock: 2.5% Crystal violet in methanol, filtered and kept at ambient temperature. The working solution: dilute the stock 1:20 with PBS immediately before use. • 10% SDS: working solution: 5% SDS (sodium dodecylsulfate), diluted in PBS Methods: Day 1:
A 96 well TC (tissue culture treated) plate was coated with 10 μg/mL poly-L-Lysine at 37° C. for 30 min, washed twice with PBS, and air-dried for 5 minutes before cells were added. Hela cells were seeded at 10,000 cells/well and the cells were starved in 100 μL starvation medium containing Axl/Fc for 24 hrs.
The cells were pre-treated with test compounds by adding 100 μL of 2× test compound to the starvation medium on the cells. The cells were incubated at 37° C. for 1 hr before stimulation.
The cells were stimulated by Axl-antibody cross-linking as follows: A 5×1st/2nd Axl antibody mixture was made (37.5 μg/mL 1st/100 μg/mL 2nd) in starvation medium and nutated at 4° C. with thorough mixing for 1-2 hours for clustering. The resulting mix was warmed to 37° C. 50 μL of 5× Axl 1st/2nd of antibody cluster was added to the cells and the cells were incubated at 37° C. for 5 min.
After 5 minutes stimulation, the plate was flicked to remove medium and the plate was tapped onto paper towels. Formaldehyde (4.0% in PBS, 100 μL) was added to fix the cells and the cells were incubated at ambient temperature for 20 min without shaking.
The cells were washed with a plate washer buffer to remove the formaldehyde solution. The plate was flicked to removed excess wash buffer and tapped onto paper towels. Quenching buffer (100 μL) was added to each well and the cells were incubated at ambient temperature for 20 minutes without shaking.
The cells were washed with a plate washer buffer to remove the quenching buffer. Blocking buffer (100 μL) was added and the cells were incubated at ambient temperature for at least an hour with gentle shaking.
The cells were washed with a plate washer buffer and diluted primary antibody (50 μL) was added to each well (blocking buffer was added to the negative control wells instead). The plates were incubated overnight at 4° C. with gentle shaking.
The wash buffer was removed, diluted secondary antibody (100 μL) was added, and the cells were incubated at ambient temperature for 1 hour with gentle shaking. […]

[1] = inhibition of Axl activity, Table 1
[2] = Table 5, Hela cells, Axl antibody cross-linking stimulation, phospho-Akt chemiluminescence
[3] = Table 3, Hela cells, Axl antibody cross-linking stimulation, phospho-Akt chemiluminescence
[4] = inhibition of Axl activity, phospho-Akt in-cell Western assay, Table 1

**Q.** Which IC50 [1] does the source give for `CC(C)c1ccc(C(=O)n2nc(Nc3ccc(N4CCOCC4)cc3)nc2N)cc1` [compound 52, 5-amino-1-(4-(iso-propyl)phenyl)carbonyl-3-(4-(morpholin-4-yl)phenylamino]-1H-1,2,4-triazole] here?
**A.** < 1 µM

**Q.** `Cc1cccc(C(=O)n2nc(Nc3ccc4c(c3)N(C(=O)OC(C)(C)C)CCO4)nc2N)c1` [compound 206, 5-amino-3-[(2H,3H-4-tert-butoxycarbonylbenzo[1,4]oxazin-6-yl)amino]-1-(3-methylphenyl)carbonyl-1,2,4-triazole] was tested. Which IC50 [2] did it give?
**A.** > 20 µM

**Q.** With `CC(C)Oc1cncc(C(=O)n2nc(Nc3ccc(OCCN4CCOCC4)cc3)nc2N)c1` [compound 171, 5-amino-1-(3-(iso-propoxy)pyridin-5-yl)carbonyl-3-[4-[2-(morpholin-4-yl)ethoxy]phenylamino]-1H-1,2,4-triazole] as the compound, how does the IC50 [3] read?
**A.** 1 to 10 µM

**Q.** Which IC50 [1] does the source give for `CC(=O)Oc1ccccc1C(=O)n1nc(Nc2ccc3c(c2)OCCO3)nc1N` [compound 119, 1-(2-(acetoxy)phenyl)carbonyl-5-amino-3-(1,4-benzodioxan-6-yl)amino-1H-1,2,4-triazole] here?
**A.** 1 to 10 µM

**Q.** `Cc1ccc(C(=O)n2nc(Nc3ccc(O)cc3)nc2N)cc1` [(Ia-4), 5-amino-3-[4-(hydroxy)phenylamino]-1-(4-methylphenyl)carbonyl-1H-1,2,4-triazole] was tested. Which IC50 [1] did it give?
**A.** > 20 µM

**Q.** `Nc1nc(Nc2ccc(OCCn3ccnc3)cc2)n(C(=O)c2ccc3sccc3c2)n1` [compound 378, 3-amino-1-(benzo[b]thiophen-5-yl)carbonyl-5-[4-[2-(imidazol-1-yl)ethoxy]phenylamino]-1H-1,2,4-triazole] was tested. Which IC50 (Table 4, Hela cells, Axl antibody cross-linking stimulation, phospho-Akt chemiluminescence) did it give?
**A.** < 1 µM

**Q.** `Cc1cccc(C(=O)n2nc(Nc3ccc4[nH]ncc4c3)nc2N)c1` [compound 154, 5-amino-3-(indazol-5-yl)amino-1-(3-(methyl)phenyl)carbonyl-1H-1,2,4-triazole] was tested. Which IC50 [2] did it give?
**A.** 1 to 10 µM

**Q.** How did the IC50 [1] turn out when `Cc1ccc(C(=O)n2nc(Nc3ccccc3F)nc2N)cc1` [compound 129, 5-amino-3-[2-(fluoro)phenylamino]-1-(4-(methyl)phenyl)carbonyl-1H-1,2,4-triazole] was run?
**A.** > 20 µM

**Q.** `Cc1cccc(C(=O)n2nc(Nc3ccc4ncccc4c3)nc2N)c1` [compound 251, 5-amino-1-(3-methylphenyl)carbonyl-3-(6-quinolinyl)amino-1H-1,2,4-triazole] was tested. Which IC50 [2] did it give?
**A.** 1 to 10 µM

**Q.** For `CC1(C)Oc2ccc(C(=O)n3nc(Nc4ccc(OCCN5CCCCC5)cc4)nc3N)cc2NC1=O` [compound 78, 5-amino-1-(2,2-dimethyl-2H-benzo[b][1,4]oxazin-3(4H)-on-6-yl)carbonyl-3-[4-[2-(piperidin-1-yl)ethoxy]phenylamino]-1H-1,2,4-triazole], which IC50 [3] is on record?
**A.** < 1 µM

**Q.** With `CC(C)Oc1cccc(C(=O)n2nc(Nc3ccc4c(c3)OCCO4)nc2N)c1` [compound 112, 5-amino-3-(1,4-benzodioxan-6-yl)amino-1-(3-(iso-propoxy)phenyl)carbonyl-1H-1,2,4-triazole] as the compound, how does the IC50 [1] read?
**A.** 1 to 10 µM

**Q.** `Nc1nc(Nc2ccc(OCCn3ccnc3)cc2)nn1C(=O)c1ccc2sccc2c1` [compound 377, 5-amino-1-(benzo[b]thiophen-5-yl)carbonyl-3-[4-[2-(imidazol-1-yl)ethoxy]phenylamino]-1H-1,2,4-triazole] was tested. Which IC50 [3] did it give?
**A.** < 1 µM

**Q.** `Nc1nc(Nc2ccccc2)nn1C(=O)c1cccc(N2CCOCC2)c1` [compound 336, 5-amino-1-(3-(morpholin-4-yl)phenyl)carbonyl-3-(phenylamino)-1H-1,2,4-triazole] was tested. Which IC50 [4] did it give?
**A.** 10 to 20 µM

**Q.** How did the IC50 [4] turn out when `CN(C)c1cccc(C(=O)n2nc(Nc3ccc(OCCn4ccnc4)cc3)nc2N)c1` [compound 374, 5-amino-1-(3-(dimethylamino)phenyl)carbonyl-3-[4-[2-(imidazol-1-yl)ethoxy]phenylamino]-1H-1,2,4-triazole] was run?
**A.** 1 to 10 µM

**Q.** For `CC(C)(C)c1ccc(C(=O)n2nc(N)nc2Nc2ccc(N3CCCC3)cc2)cc1` [compound 298, 3-amino-1-(4-(tert-butyl)phenyl)carbonyl-5-[4-(pyrrolidin-1-yl)phenylamino]-1H-1,2,4-triazole], which IC50 (Table 2, Hela cells, Axl antibody cross-linking stimulation, phospho-Akt chemiluminescence) is on record?
**A.** > 20 µM
